Laboratory results published in paper PMC7155171, “Probing the Open Global Health Chemical Diversity Library for Multistage-Active Starting Points for Next-Generation Antimalarials” (ACS Infectious Diseases, 2020).
Like-named read-outs stand apart in the source and are kept apart here.

Assays:
P. falciparum Dd2 = test: SYBR green I asexual blood stage proliferation assay (96 h); assay type: cell-based, Plasmodium falciparum; conditions: Plasmodium falciparum, DD2, 11-pt dose response, 96hr
[1] = system: P. falciparum Dd2 (PfLuc) line expressing firefly luciferase, asexual blood stage; test: microbe, parasite or virus in culture; assay type: cell-based, Plasmodium falciparum; conditions: Plasmodium falciparum
[2] = Sybr Green I, read-out: CDD P. falciparum Sybr Green I ABS 11-pt Reconfirmation Dose Response (96hr): IC50
[3] = DD2, read-out: CDD P. falciparum Luciferase ABS 11-pt Reconfirmation Dose Response (48hr): IC50 (μM), 11-pt dose response, 48hr
[4] = DD2, 8-pt dose response, 96hr, read-out: CDD P. falciparum Luciferase ABS 8-pt Reconfirmation Dose Response (96hr): IC50
[5] = DD2, 8-pt dose response, 96hr, read-out: CDD P. falciparum Luciferase ABS 8-pt Reconfirmation Dose Response (96hr): Maximum inhibition (%)
[6] = DD2, 11-pt dose response, 48hr, read-out: CDD P. falciparum Luciferase ABS 11-pt Reconfirmation Dose Response (48hr): Maximum inhibition (%)
[7] = DD2, 11-pt dose response, 96hr, read-out: CDD P. falciparum Luciferase ABS 11-pt Reconfirmation Dose Response (96hr): IC50
[8] = DD2, 11-pt dose response, 96hr, read-out: CDD P. falciparum Luciferase ABS 11-pt Reconfirmation Dose Response (96hr): Maximum inhibition (%)
[9] = Sybr Green I, read-out: CDD P. falciparum Sybr Green I ABS 11-pt Reconfirmation Dose Response (96hr): Maximum inhibition (%)
[10] = read-out: P. falciparum Sybr Green I ABS 11-pt Reconfirmation Dose Response (96hr): IC50
[11] = read-out: P. falciparum Sybr Green I ABS 11-pt Reconfirmation Dose Response (96hr): Maximum inhibition (%)
[12] = DD2, read-out: P. falciparum Luciferase ABS 11-pt Reconfirmation Dose Response (48hr): IC50, 11-pt dose response, 48hr
[13] = DD2, 8-pt dose response, 96hr, read-out: P. falciparum Luciferase ABS 8-pt Reconfirmation Dose Response (96hr): IC50
[14] = DD2, 8-pt dose response, 96hr, read-out: P. falciparum Luciferase ABS 8-pt Reconfirmation Dose Response (96hr): Maximum inhibition (%)
[15] = DD2, 11-pt dose response, 48hr, read-out: P. falciparum Luciferase ABS 11-pt Reconfirmation Dose Response (48hr): Maximum inhibition (%)
[16] = DD2, 11-pt dose response, 96hr, read-out: P. falciparum Luciferase ABS 11-pt Reconfirmation Dose Response (96hr): IC50
[17] = DD2, 11-pt dose response, 96hr, read-out: P. falciparum Luciferase ABS 11-pt Reconfirmation Dose Response (96hr): Maximum inhibition (%)

SMILES	IC50 (P. falciparum Dd2; [2])	IC50 [1, 3]	IC50 [1, 4]	Emax [1, 5]	Emax [1, 6]	IC50 [1, 7]	Emax [1, 8]	Emax (P. falciparum Dd2; [9])	IC50 (P. falciparum Dd2; [10])	Emax (P. falciparum Dd2; [11])	IC50 [1, 12]	IC50 [1, 13]	Emax [1, 14]	Emax [1, 15]	IC50 [1, 16]	Emax [1, 17]
CN(CCCO)Cc1cc(Cl)ccc1OCC(O)CN1CCCCCC1 (stereo not drawn) [DDD01251957]	2750 nM	2.71 µM	0.99 µM	94.6%	99.2%	> 1.39 µM	101%									
CN1CCN(Cc2ccccc2Oc2nccc3occc23)CC1 [DDD01252026]	> 4160 nM	> 12.5 µM	0.71 µM	83.5%	26.1%	2.91 µM	85.7%	63.4%								
O=C(C1CNCCO1)N1CCCC(c2ccccc2)(c2ccccc2)C1 (stereo not drawn) [DDD01252287]									5760 nM	58.4%	6.95 µM	2.21 µM	80.7%	53.2%	2.05 µM	83.1%
COCCn1ccnc1CN(Cc1ccccn1)Cc1sccc1C [DDD01252459]									> 4160 nM	87.8%	3.48 µM	1.19 µM	90.8%	94.7%	0.73 µM	99.1%
Cc1ccc(C2(CN(C)Cc3sccc3C)CCNCC2)nc1 [DDD01252463]	> 12500 nM	> 12.5 µM	0.73 µM	78.8%	41.3%	1.59 µM	81.7%	57.2%								
c1ccn2c(C3CCCN(c4ncnc5c4CCNC5)C3)nnc2c1 (stereo not drawn) [DDD01252518]	> 12500 nM	> 1.39 µM	0.26 µM	90.8%	64.8%	0.449 µM	97.6%	42%								
CCOc1cccc(CN2CCCC(Nc3ccc(F)cc3)C2)c1O (stereo not drawn) [DDD01252745]	1880 nM	1.43 µM	0.6 µM	93.4%	96.3%	0.703 µM	99.7%	98.6%								
CN(CCO)C[C@@H]1CN(Cc2ccccc2-c2ccccc2)C[C@@H]1CO [DDD01252927]	> 1390 nM	8.14 µM	0.57 µM	92%	71.8%	1.25 µM	92.8%	89.1%								
Cc1ccc(C)c(OCCNC(=O)[C@@H]2CCCCN2)c1 [DDD01252936]	7600 nM	6.36 µM	0.37 µM	89.3%	74.3%	1.17 µM	87.5%									
CN(C)c1nc2c(c(NCc3cc(O)ncn3)n1)CCCC2 [DDD01252975]	1820 nM	3.75 µM	0.59 µM	94%	96%	2.11 µM	99.7%	99.1%								
Cc1cc(F)ccc1N1CCC(N2C[C@@H](CN(C)C)[C@@H](CO)C2)CC1 [DDD01253692]	2030 nM	> 4.16 µM	0.37 µM	94.9%	55.2%	0.396 µM	100%	90.3%								
c1ccc(C2CN(C3CC3)CC3(CCN(Cc4cscn4)CC3)C2)cc1 (stereo not drawn) [DDD01253863]									> 4160 nM		4.6 µM	1.16 µM	78.8%	85%	3.45 µM	96.3%
OC(CNCc1ccccc1C(F)(F)F)c1ccccc1 (stereo not drawn) [DDD01254021]	3660 nM	4.82 µM	0.87 µM	91.4%	84.3%	1.76 µM	97.4%	87.9%								
NCC1Cc2cc(-c3nccc(N4CCC(O)CC4)n3)cc(F)c2O1 (stereo not drawn) [DDD01254054]	2490 nM	2.43 µM	0.59 µM	94.6%	91.4%	1.87 µM	98.9%	92%								
COCCN(C)Cc1cc(Cl)ccc1OCC(O)CN1CCCCCC1 (stereo not drawn) [DDD01254091]									3770 nM	91.7%	3 µM	1.11 µM	94.7%	98.3%	> 1.39 µM	101%
